Our source for the MIC values is ChEMBL document CHEMBL1144592, “Synthesis and antimicrobial activities of Schiff bases derived from 5-chloro-salicylaldehyde” (2007).

What all share (type): functional
For one experiment, the system named is Bacillus subtilis. Put plainly: Antibacterial activity against Bacillus subtilis after 24 hrs by MTT colorimetric method. Background: Tetrazolium dyes change colour on reduction, which living cells bring about.
A further experiment deals with Candida albicans. The experiment can be described thus: Antifungal activity against Candida albicans after 48 hrs by MTT colorimetric method.
Another experiment concerns Aspergillus niger. Put plainly: Antifungal activity against Aspergillus niger after 48 hrs by MTT colorimetric method.
The test system of another experiment is Trichophyton rubrum. The experiment can be described thus: Antifungal activity against Trichophyton rubrum after 48 hrs by MTT colorimetric method.
A further experiment concerns Staphylococcus aureus. Put plainly: Antibacterial activity against Staphylococcus aureus after 24 hrs by MTT colorimetric method.
A further experiment deals with Pseudomonas fluorescens. The experiment can be described thus: Antibacterial activity against Pseudomonas fluorescens after 24 hrs by MTT colorimetric method.
Another experiment concerns Escherichia coli. Put plainly: Antibacterial activity against Escherichia coli after 24 hrs by MTT colorimetric method.

Values after ≈ are worked out from the molar mass of the structure shown.

What is called MIC is the smallest concentration in the dilution series that meets the test's criterion for growth inhibition.

Turning to `Oc1ccc(Cl)cc1/C=N/C1CCCCC1`, the MIC was more than 50 mg/L in the experiment on Bacillus subtilis; more than 50 mg/L against Candida albicans; more than 50 mg/L in the experiment with Aspergillus niger; more than 50 mg/L against Trichophyton rubrum; 25 mg/L (≈ 105 µM) against Staphylococcus aureus; 12.5 mg/L (≈ 52.6 µM) in the experiment on Pseudomonas fluorescens. In addition, in the experiment with Escherichia coli, the MIC came to 48.6 mg/L (≈ 204 µM).

On to `CCOC(=O)N1CCC(/N=C/c2cc(Cl)ccc2O)CC1`, for which the minimal inhibitory concentration (MIC) against Bacillus subtilis, in the experiment with Candida albicans, with Aspergillus niger, against Trichophyton rubrum, against Staphylococcus aureus and with Pseudomonas fluorescens was more than 50 mg/L each time. This compound also returned an MIC against Escherichia coli of more than 50 mg/L.

With `CC1(C)CC(/N=C/c2cc(Cl)ccc2O)CC(C)(C)N1`, the MIC is more than 50 mg/L with Bacillus subtilis; more than 50 mg/L with Candida albicans; more than 50 mg/L in the experiment with Aspergillus niger; more than 50 mg/L in the experiment with Trichophyton rubrum; more than 50 mg/L against Staphylococcus aureus; 40.5 mg/L (≈ 137 µM) in the experiment on Pseudomonas fluorescens. Moreover, the minimum inhibitory concentration (MIC) with Escherichia coli is more than 50 mg/L.

Consider `Oc1ccc(Cl)cc1/C=N/CCN1CCNCC1`, for which the MIC is more than 50 mg/L with Bacillus subtilis; more than 50 mg/L against Candida albicans; more than 50 mg/L with Aspergillus niger; more than 50 mg/L against Trichophyton rubrum; 22.5 mg/L (≈ 84 µM) against Staphylococcus aureus; more than 50 mg/L with Pseudomonas fluorescens. In addition, in the experiment with Escherichia coli, the MIC was more than 50 mg/L.

Consider `Oc1ccc(Cl)cc1/C=N/CCCN1CCOCC1`, for which the MIC was more than 50 mg/L against Bacillus subtilis; more than 50 mg/L against Candida albicans; more than 50 mg/L with Aspergillus niger; more than 50 mg/L in the experiment on Trichophyton rubrum; 18.5 mg/L (≈ 65.4 µM) in the experiment with Staphylococcus aureus; more than 50 mg/L with Pseudomonas fluorescens. The compound further showed an MIC in the experiment on Escherichia coli of more than 50 mg/L.

Turning to `Oc1ccc(Cl)cc1/C=N/C1CCCC1`, the MIC is more than 50 mg/L against Bacillus subtilis; more than 50 mg/L in the experiment with Candida albicans; more than 50 mg/L in the experiment with Aspergillus niger; more than 50 mg/L against Trichophyton rubrum; more than 50 mg/L against Staphylococcus aureus; 3.4 mg/L (≈ 15.2 µM) with Pseudomonas fluorescens. In the experiment with Escherichia coli, this compound displayed an MIC of 4.1 mg/L (≈ 18.3 µM).

`Oc1ccc(CC/N=C/c2cc(Cl)ccc2O)cc1`: the MIC is 48.5 mg/L (≈ 176 µM) with Bacillus subtilis; more than 50 mg/L against Candida albicans; more than 50 mg/L against Aspergillus niger; more than 50 mg/L in the experiment with Trichophyton rubrum; 1.8 mg/L (≈ 6.53 µM) against Staphylococcus aureus; 3.1 mg/L (≈ 11.2 µM) against Pseudomonas fluorescens. In addition, the MIC in the experiment with Escherichia coli was more than 50 mg/L.

Turning to `O=[N+]([O-])c1ccc(/N=C/c2cc(Cl)ccc2O)cc1`, the MIC against Bacillus subtilis is more than 50 mg/L; in the experiment with Candida albicans it was more than 50 mg/L; against Aspergillus niger, more than 50 mg/L; against Trichophyton rubrum it was more than 50 mg/L; with Staphylococcus aureus, 18.5 mg/L (≈ 66.9 µM); against Pseudomonas fluorescens, more than 50 mg/L. The minimal inhibitory concentration (MIC) with Escherichia coli is more than 50 mg/L.

Regarding `Oc1ccc(Cl)cc1/C=N/C1CCN(Cc2ccccc2)CC1`, the MIC in the experiment with Bacillus subtilis, in the experiment on Candida albicans, against Aspergillus niger, in the experiment on Trichophyton rubrum, against Staphylococcus aureus and against Pseudomonas fluorescens was more than 50 mg/L each time. The compound also registered an MIC against Escherichia coli of more than 50 mg/L.

Take `Oc1ccc(Cl)cc1/C=N/Cc1ccco1`: the MIC with Bacillus subtilis is 49.8 mg/L (≈ 211 µM); with Candida albicans, more than 50 mg/L; in the experiment on Aspergillus niger, more than 50 mg/L; in the experiment on Trichophyton rubrum it was more than 50 mg/L; against Staphylococcus aureus it was more than 50 mg/L; against Pseudomonas fluorescens, 5.2 mg/L (≈ 22.1 µM). Inhibition of growth in the experiment with Escherichia coli (MIC) required 5.7 mg/L (≈ 24.2 µM).

Turning to `OCC/N=C/c1cc(Cl)ccc1O`, the MIC was more than 50 mg/L in the experiment on Bacillus subtilis; 12.5 mg/L (≈ 62.6 µM) against Candida albicans; more than 50 mg/L in the experiment on Aspergillus niger; more than 50 mg/L with Trichophyton rubrum; 15.5 mg/L (≈ 77.6 µM) against Staphylococcus aureus; more than 50 mg/L in the experiment with Pseudomonas fluorescens. The MIC in the experiment on Escherichia coli is more than 50 mg/L.

For `CC(C/N=C/c1cc(Cl)ccc1O)/N=C/c1cc(Cl)ccc1O` (stereo unspecified), the minimal inhibitory concentration (MIC) with Bacillus subtilis is 1.8 mg/L (≈ 5.12 µM); in the experiment with Candida albicans it was more than 50 mg/L; against Aspergillus niger, more than 50 mg/L; in the experiment on Trichophyton rubrum, more than 50 mg/L; in the experiment on Staphylococcus aureus, more than 50 mg/L; with Pseudomonas fluorescens, 3.6 mg/L (≈ 10.2 µM). Moreover, in the experiment on Escherichia coli, the MIC was found to be 4.9 mg/L (≈ 14 µM).

In the case of `CN(C)CCC/N=C/c1cc(Cl)ccc1O`, the MIC against Bacillus subtilis, in the experiment on Candida albicans, in the experiment on Aspergillus niger, with Trichophyton rubrum, in the experiment with Staphylococcus aureus and with Pseudomonas fluorescens was more than 50 mg/L throughout. In addition, the MIC with Escherichia coli is more than 50 mg/L.

As to `Oc1ccc(Cl)cc1/C=N/CC/N=C/c1cc(Cl)ccc1O`, the MIC against Bacillus subtilis is more than 50 mg/L; against Candida albicans it was more than 50 mg/L; with Aspergillus niger, more than 50 mg/L; with Trichophyton rubrum, more than 50 mg/L; against Staphylococcus aureus it was more than 50 mg/L; against Pseudomonas fluorescens, 2.8 mg/L (≈ 8.3 µM). This compound also returned a minimum inhibitory concentration (MIC) in the experiment on Escherichia coli of more than 50 mg/L.

As for `Oc1ccc(Cl)cc1/C=N/Cc1ccccc1`, the MIC in the experiment with Bacillus subtilis was more than 50 mg/L; in the experiment with Candida albicans, more than 50 mg/L; with Aspergillus niger, more than 50 mg/L; in the experiment with Trichophyton rubrum it was more than 50 mg/L; in the experiment with Staphylococcus aureus, more than 50 mg/L; against Pseudomonas fluorescens, 3.2 mg/L (≈ 13 µM). Further, the minimal inhibitory concentration (MIC) in the experiment with Escherichia coli came to 3.1 mg/L (≈ 12.6 µM).

As for `Oc1ccc(Cl)cc1/C=N/Cc1ccc(F)cc1`, the MIC was 45.2 mg/L (≈ 171 µM) in the experiment on Bacillus subtilis; more than 50 mg/L in the experiment with Candida albicans; 47.5 mg/L (≈ 180 µM) against Aspergillus niger; more than 50 mg/L in the experiment with Trichophyton rubrum; 3.4 mg/L (≈ 12.9 µM) in the experiment with Staphylococcus aureus; 2.8 mg/L (≈ 10.6 µM) in the experiment with Pseudomonas fluorescens. In the experiment on Escherichia coli, it took 1.6 mg/L (≈ 6.07 µM) to inhibit growth (MIC).

For `CN(CCC/N=C/c1cc(Cl)ccc1O)CCC/N=C/c1cc(Cl)ccc1O`, the MIC against Bacillus subtilis, in the experiment on Candida albicans, with Aspergillus niger, in the experiment with Trichophyton rubrum, with Staphylococcus aureus and in the experiment on Pseudomonas fluorescens was more than 50 mg/L each time. The compound also gave an MIC in the experiment on Escherichia coli of more than 50 mg/L.

Regarding `Oc1ccc(Cl)cc1/C=N/CCCCCC/N=C/c1cc(Cl)ccc1O`, the MIC with Bacillus subtilis, with Candida albicans, in the experiment with Aspergillus niger, in the experiment on Trichophyton rubrum, with Staphylococcus aureus and with Pseudomonas fluorescens was more than 50 mg/L in each case. In the experiment with Escherichia coli, the MIC is more than 50 mg/L.

Turning to `CC1(/N=C/c2cc(Cl)ccc2O)CCC(C(C)(C)/N=C/c2cc(Cl)ccc2O)CC1` (stereo unspecified), the MIC in the experiment on Bacillus subtilis, against Candida albicans, with Aspergillus niger, with Trichophyton rubrum, in the experiment on Staphylococcus aureus and with Pseudomonas fluorescens was more than 50 mg/L in each case. The MIC with Escherichia coli is more than 50 mg/L.

Turning to `Oc1ccc(Cl)cc1/C=N/CC1CCCCC1`, the minimal inhibitory concentration (MIC) in the experiment on Bacillus subtilis, with Candida albicans, in the experiment with Aspergillus niger, in the experiment on Trichophyton rubrum, in the experiment on Staphylococcus aureus and against Pseudomonas fluorescens was more than 50 mg/L each time. The compound also returned an MIC with Escherichia coli of more than 50 mg/L.

For the compound `CCN(CC)CCC/N=C/c1cc(Cl)ccc1O`, the MIC with Bacillus subtilis, in the experiment on Candida albicans, in the experiment with Aspergillus niger, against Trichophyton rubrum, in the experiment with Staphylococcus aureus and in the experiment with Pseudomonas fluorescens was more than 50 mg/L each time. In the experiment on Escherichia coli, this compound yielded a minimal inhibitory concentration (MIC) of more than 50 mg/L.

On to `Oc1ccc(Cl)cc1/C=N/CC1CCCC(C/N=C/c2cc(Cl)ccc2O)C1` (stereo unspecified), for which the MIC in the experiment on Bacillus subtilis, against Candida albicans, with Aspergillus niger, in the experiment on Trichophyton rubrum, against Staphylococcus aureus and in the experiment on Pseudomonas fluorescens was more than 50 mg/L throughout. Further, the MIC against Escherichia coli is more than 50 mg/L.

As to `Oc1ccc(Cl)cc1/C=N/CCNCC/N=C/c1cc(Cl)ccc1O`, the MIC was more than 50 mg/L against Bacillus subtilis; more than 50 mg/L against Candida albicans; more than 50 mg/L against Aspergillus niger; more than 50 mg/L against Trichophyton rubrum; more than 50 mg/L with Staphylococcus aureus; 32.5 mg/L (≈ 85.5 µM) in the experiment on Pseudomonas fluorescens. In the experiment on Escherichia coli, this compound showed an MIC of more than 50 mg/L.

As to `Oc1ccc(Cl)cc1/C=N/CCC/N=C/c1cc(Cl)ccc1O`, the MIC against Bacillus subtilis is more than 50 mg/L; against Candida albicans, more than 50 mg/L; in the experiment with Aspergillus niger, more than 50 mg/L; against Trichophyton rubrum, more than 50 mg/L; with Staphylococcus aureus it was more than 50 mg/L; with Pseudomonas fluorescens it was 4.5 mg/L (≈ 12.8 µM). The same compound came in with an MIC against Escherichia coli of 5 mg/L (≈ 14.2 µM).

`Oc1ccc(Cl)cc1/C=N/CCN1CCOCC1`: the MIC is more than 50 mg/L in the experiment with Bacillus subtilis; more than 50 mg/L against Candida albicans; more than 50 mg/L in the experiment on Aspergillus niger; more than 50 mg/L against Trichophyton rubrum; more than 50 mg/L against Staphylococcus aureus; 2.5 mg/L (≈ 9.3 µM) against Pseudomonas fluorescens. Moreover, the MIC in the experiment on Escherichia coli was found to be 3.5 mg/L (≈ 13 µM).

Take `Oc1ccc(Cl)cc1/C=N/Cc1cccnc1`: the MIC was more than 50 mg/L against Bacillus subtilis; more than 50 mg/L in the experiment on Candida albicans; more than 50 mg/L against Aspergillus niger; more than 50 mg/L against Trichophyton rubrum; 19.5 mg/L (≈ 79 µM) with Staphylococcus aureus; 12.5 mg/L (≈ 50.7 µM) against Pseudomonas fluorescens. For the same compound, in the experiment with Escherichia coli, the minimum inhibitory concentration (MIC) is more than 50 mg/L.

Regarding `NC[C@H]1O[C@H](O[C@H]2[C@H](O)[C@@H](O[C@H]3O[C@H](CO)[C@@H](O)[C@H](N)[C@H]3O)[C@H](N)C[C@@H]2N)[C@H](O)[C@@H](O)[C@@H]1O` [KANAMYCIN], the MIC against Bacillus subtilis was 0.39 mg/L (≈ 0.805 µM); in the experiment on Candida albicans it was more than 50 mg/L; in the experiment with Aspergillus niger, more than 50 mg/L; in the experiment on Trichophyton rubrum it was more than 50 mg/L; in the experiment on Staphylococcus aureus, 1 mg/L (≈ 2.06 µM); against Pseudomonas fluorescens it was 3.9 mg/L (≈ 8.05 µM). Moreover, it took 3.9 mg/L (≈ 8.05 µM) to inhibit growth against Escherichia coli (MIC).

`CC(=O)N1CCN(c2ccc(OC[C@H]3CO[C@](Cn4ccnc4)(c4ccc(Cl)cc4Cl)O3)cc2)CC1` [KETOCONAZOLE]: the MIC with Bacillus subtilis was more than 50 mg/L; with Candida albicans, 3.9 mg/L (≈ 7.34 µM); in the experiment with Aspergillus niger it was 7.8 mg/L (≈ 14.7 µM); against Trichophyton rubrum, 3.9 mg/L (≈ 7.34 µM); in the experiment with Staphylococcus aureus, more than 50 mg/L; against Pseudomonas fluorescens, more than 50 mg/L. For the same compound, the MIC in the experiment with Escherichia coli was more than 50 mg/L.
